The results in this text go back to ChEMBL document CHEMBL1201862, “PubChem BioAssay data set” (2004).

In general, EC50 refers to the concentration giving half of the maximal effect. One may read the AC50 as the midpoint of the concentration-response curve, whichever way the signal moves.

Active and inactive are the calls of the source. Some results are limits rather than exact numbers.

Assay [1] is described as follows: growth suppression of beta-catenin-knockout colon cells, dose response, cell-based, HCT116, human colon tumor (AID 1045).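 Note: HCT116 colon tumor cells with beta catenin knocked out; cells exposed to compound for 60 hours.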 The format is functional.
Another assay has as its system INS1. As to the kind of experiment: beta cell apoptosis inhibitors, cytokine rescue, dose response, luminescence, retest (AID 449756).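 Note: cell death triggered by IL-1 beta plus TNF-alpha plus IFN-gamma mixture; protective hits raise ATP signal compared with cytokine alone wells.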 In kind it is functional, cell-based. To be noted: Rattus norvegicus.
Assay [2] can be described thus: growth suppression of PTEN-null colon cells, dose response, cell-based, HCT116 PTEN knockout (AID 1047).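 Note: HCT116 colon tumor cells with PTEN knocked out; cells exposed to compound for 60 hours before readout; potency for loss of cell viability measured by luminescence.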 In kind it is functional.
Assay [3] has as its target T1, Low molecular weight phosphotyrosine protein phosphatase (Homo sapiens, UniProt P24666).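 Note: Dose-response confirmation assay measuring inhibition of LMPTP enzyme activity by fluorescence intensity read-out.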
T1 sequence (P24666 whole entry): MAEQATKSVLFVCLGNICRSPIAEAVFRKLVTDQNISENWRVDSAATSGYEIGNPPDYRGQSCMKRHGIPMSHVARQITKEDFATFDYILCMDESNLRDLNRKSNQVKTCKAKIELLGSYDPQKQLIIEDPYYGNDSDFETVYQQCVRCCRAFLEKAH
The format is functional. To be noted: read-out: IC50_Mean.

For a further assay, the system named is H4. As to the kind of experiment: Luminescence Cell-Based Dose Response HTS to Identify Activators of 5'UTR Stem-Loop Driven Prion Protein mRNA Translation in H4 Neuroglioblastoma Cells. [Related pubchem assays: 1829 (Project Summary), 1814 (Primary HTS)]. To be noted: Homo sapiens. The format is functional.
A short description of assay [4]: Luminescence Cell-Based Dose Response HTS to Identify Activators of Luciferase Translation or Activity in H4 […] Cells. [Related pubchem assays: 1829 (Project Summary), 1814 (Primary HTS)]. In kind it is functional.
The nature of assay [5]: Luminescence Cell-Based Dose Response to Identify Activators of Luciferase Translation or Activity in H4-C Neuroglioblastoma Cells. [Related pubchem assays: 1829 (Project Summary), 1814 (Primary HTS)]. In kind it is functional.
Assay [6] in a line: Luminescence Cell-Based Dose Confirmation to Identify Activators of 5'UTR Stem-Loop Driven Alpha-Synuclein mRNA Translation in H4 Neuroglioblastoma Cells. [Related pubchem assays: 1829 (Project Summary), 1814 (Primary HTS)]. The format is functional.
Assay [7] can be described thus: Luminescence Cell-Based Dose Response to Identify Activators of 5'UTR Stem-Loop Driven Prion Protein mRNA Translation in H4-C Neuroglioblastoma Cells. [Related pubchem assays: 1829 (Project Summary), 1814 (Primary HTS)]. In kind it is functional.
Assay [8] can be described thus: Luminescence Cell-Based Dose Confirmation HTS to Identify Activators of 5'UTR Stem-Loop Driven Alpha-Synuclein mRNA Translation in H4 Neuroglioblastoma Cells. [Related pubchem assays: 1829 (Project Summary), 1814 (Primary HTS)]. In kind it is functional.
For assay [9], the target named is T2, Histone-lysine N-methyltransferase NSD2 (Homo sapiens, UniProt O96028).
T2 sequence (O96028 whole entry): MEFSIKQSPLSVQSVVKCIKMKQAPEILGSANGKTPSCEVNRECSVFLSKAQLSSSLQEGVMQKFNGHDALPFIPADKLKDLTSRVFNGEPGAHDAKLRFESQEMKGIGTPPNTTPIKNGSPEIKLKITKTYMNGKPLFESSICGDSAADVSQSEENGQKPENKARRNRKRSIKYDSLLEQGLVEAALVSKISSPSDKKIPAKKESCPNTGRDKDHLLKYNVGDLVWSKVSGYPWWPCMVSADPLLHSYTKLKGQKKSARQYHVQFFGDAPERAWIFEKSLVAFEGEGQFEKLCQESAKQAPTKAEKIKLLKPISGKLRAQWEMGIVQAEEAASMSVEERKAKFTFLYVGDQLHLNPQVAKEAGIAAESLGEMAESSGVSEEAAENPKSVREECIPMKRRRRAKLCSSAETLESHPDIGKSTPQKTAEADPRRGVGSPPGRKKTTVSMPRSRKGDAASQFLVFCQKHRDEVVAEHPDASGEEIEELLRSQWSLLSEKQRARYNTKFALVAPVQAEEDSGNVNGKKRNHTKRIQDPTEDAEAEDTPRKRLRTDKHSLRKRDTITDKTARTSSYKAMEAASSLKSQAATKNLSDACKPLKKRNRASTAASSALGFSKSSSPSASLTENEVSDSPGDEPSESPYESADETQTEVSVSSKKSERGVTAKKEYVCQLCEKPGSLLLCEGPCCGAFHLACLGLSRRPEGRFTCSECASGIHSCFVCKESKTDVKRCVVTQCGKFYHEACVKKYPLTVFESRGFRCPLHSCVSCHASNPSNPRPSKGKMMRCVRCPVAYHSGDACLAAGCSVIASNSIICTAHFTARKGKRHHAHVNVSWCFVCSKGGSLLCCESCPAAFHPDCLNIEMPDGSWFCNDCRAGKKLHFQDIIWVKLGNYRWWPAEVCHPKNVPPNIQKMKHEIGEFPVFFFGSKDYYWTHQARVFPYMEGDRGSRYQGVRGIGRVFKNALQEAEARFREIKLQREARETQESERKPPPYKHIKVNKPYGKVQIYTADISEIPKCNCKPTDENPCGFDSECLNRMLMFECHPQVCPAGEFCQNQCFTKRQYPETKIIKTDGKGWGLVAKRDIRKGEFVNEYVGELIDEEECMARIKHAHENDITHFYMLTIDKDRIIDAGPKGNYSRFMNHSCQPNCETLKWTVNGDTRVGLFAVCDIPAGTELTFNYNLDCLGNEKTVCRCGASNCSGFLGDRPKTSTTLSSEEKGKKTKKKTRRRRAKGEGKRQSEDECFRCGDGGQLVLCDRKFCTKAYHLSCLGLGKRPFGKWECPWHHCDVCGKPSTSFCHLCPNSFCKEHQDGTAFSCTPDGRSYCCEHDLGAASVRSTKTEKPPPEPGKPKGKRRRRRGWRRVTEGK
In kind it is biochemical.

The nature of assay [10]: Shn3 3'UTR reporter inhibitors, dose response, cell-based, Clone20 osteoblasts, firefly luciferase, cherry-picked (AID 624132).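 Note: firefly luciferase luminescence from reporter carrying the Shn3 3'UTR in osteoblasts.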 The format is functional.
For assay [11], the target named is T3, Fatty acid synthase (Homo sapiens, UniProt P49327). As to the kind of experiment: FAS thioesterase domain inhibitors, dose response, biochemical, endpoint fluorescence intensity, uHTS hits (AID 624327).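 Note: fluorescence from hydrolysis of an O-methyl fluorescein acyl ester substrate by the enzyme.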 The format is functional.
The target in assay [12] is T3, Fatty acid synthase. As to the kind of experiment: FAS thioesterase domain inhibitors, dose response, biochemical, kinetic fluorescence intensity (AID 624326).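 Note: rate of fluorescence rise from hydrolysis of a fluorogenic O-methyl fluorescein ester substrate.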 In kind it is functional.
A short description of assay [13]: HepG2 cell cytotoxicity, dose response, cytotoxicity control for Shn3 inhibitor project, CellTiter-Glo, cherry-picked (AID 624134). In kind it is functional, cell-based. In general terms: Cellular ATP, detected with luciferase, serves as a proxy for viable cell number.
Assay [14] can be described thus: control 3'UTR Renilla luciferase suppression, dose response, counter-screen for Shn3 inhibitor project, cell-based, Clone20-Shn3RL, cherry-picked (AID 624133). In kind it is functional.
A short description of assay [15]: Luminescence Cell-Based Dose Response HTS to Identify Inhibitors of 5'UTR Stem-Loop Driven Prion Protein mRNA Translation in H4 Neuroglioblastoma Cells. [Related pubchem assays: 1827 (Project Summary), 1813 (Primary HTS)]. The format is functional.
The nature of assay [16]: inhibitors of SNCA 5'UTR-driven reporter translation, confirmation, H4 neuroglioma cells, luminescence (AID 1988). In kind it is functional, cell-based.
Assay [17] can be described thus: inhibitors of firefly luciferase expression or activity, dose response, H4 neuroglioma cells, luminescence (AID 1990). In kind it is functional, cell-based.
A short description of assay [18]: NIH:OVCAR-3 ovarian cancer cell cytotoxicity, dose response, PAX8 inhibitor project, plate reader, dry powder samples (AID 743044). The format is functional, cell-based.
The next assay addresses Paired box protein Pax-8 (Homo sapiens, UniProt Q06710). As to the kind of experiment: inhibitors of PAX8-driven TPO luciferase reporter, dose response, RMG-I cells, cherry-pick (AID 687027).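 Note: luciferase reporter driven by Pax8 target thyroperoxidase promoter measured by SteadyGlo luminescence.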 The format is functional, cell-based. On the technique in general: Reporter assays use an easily measured gene product as a stand-in for the process of interest.
Assay [19] can be described thus: cytotoxicity in OVCAR8 ovarian cancer cells, dose response, PAX8 project, cell-based, plate reader, dry powder samples (AID 743197). The format is functional. To be noted: OVCAR-8.
The nature of assay [20]: IGROV1 ovarian cancer cell cytotoxicity, dose response, PAX8 inhibitor project, plate reader, dry powder samples (AID 743043). The format is functional, cell-based. To be noted: IGROV-1.

T3 sequence (P49327 whole entry, the tested form may be a part): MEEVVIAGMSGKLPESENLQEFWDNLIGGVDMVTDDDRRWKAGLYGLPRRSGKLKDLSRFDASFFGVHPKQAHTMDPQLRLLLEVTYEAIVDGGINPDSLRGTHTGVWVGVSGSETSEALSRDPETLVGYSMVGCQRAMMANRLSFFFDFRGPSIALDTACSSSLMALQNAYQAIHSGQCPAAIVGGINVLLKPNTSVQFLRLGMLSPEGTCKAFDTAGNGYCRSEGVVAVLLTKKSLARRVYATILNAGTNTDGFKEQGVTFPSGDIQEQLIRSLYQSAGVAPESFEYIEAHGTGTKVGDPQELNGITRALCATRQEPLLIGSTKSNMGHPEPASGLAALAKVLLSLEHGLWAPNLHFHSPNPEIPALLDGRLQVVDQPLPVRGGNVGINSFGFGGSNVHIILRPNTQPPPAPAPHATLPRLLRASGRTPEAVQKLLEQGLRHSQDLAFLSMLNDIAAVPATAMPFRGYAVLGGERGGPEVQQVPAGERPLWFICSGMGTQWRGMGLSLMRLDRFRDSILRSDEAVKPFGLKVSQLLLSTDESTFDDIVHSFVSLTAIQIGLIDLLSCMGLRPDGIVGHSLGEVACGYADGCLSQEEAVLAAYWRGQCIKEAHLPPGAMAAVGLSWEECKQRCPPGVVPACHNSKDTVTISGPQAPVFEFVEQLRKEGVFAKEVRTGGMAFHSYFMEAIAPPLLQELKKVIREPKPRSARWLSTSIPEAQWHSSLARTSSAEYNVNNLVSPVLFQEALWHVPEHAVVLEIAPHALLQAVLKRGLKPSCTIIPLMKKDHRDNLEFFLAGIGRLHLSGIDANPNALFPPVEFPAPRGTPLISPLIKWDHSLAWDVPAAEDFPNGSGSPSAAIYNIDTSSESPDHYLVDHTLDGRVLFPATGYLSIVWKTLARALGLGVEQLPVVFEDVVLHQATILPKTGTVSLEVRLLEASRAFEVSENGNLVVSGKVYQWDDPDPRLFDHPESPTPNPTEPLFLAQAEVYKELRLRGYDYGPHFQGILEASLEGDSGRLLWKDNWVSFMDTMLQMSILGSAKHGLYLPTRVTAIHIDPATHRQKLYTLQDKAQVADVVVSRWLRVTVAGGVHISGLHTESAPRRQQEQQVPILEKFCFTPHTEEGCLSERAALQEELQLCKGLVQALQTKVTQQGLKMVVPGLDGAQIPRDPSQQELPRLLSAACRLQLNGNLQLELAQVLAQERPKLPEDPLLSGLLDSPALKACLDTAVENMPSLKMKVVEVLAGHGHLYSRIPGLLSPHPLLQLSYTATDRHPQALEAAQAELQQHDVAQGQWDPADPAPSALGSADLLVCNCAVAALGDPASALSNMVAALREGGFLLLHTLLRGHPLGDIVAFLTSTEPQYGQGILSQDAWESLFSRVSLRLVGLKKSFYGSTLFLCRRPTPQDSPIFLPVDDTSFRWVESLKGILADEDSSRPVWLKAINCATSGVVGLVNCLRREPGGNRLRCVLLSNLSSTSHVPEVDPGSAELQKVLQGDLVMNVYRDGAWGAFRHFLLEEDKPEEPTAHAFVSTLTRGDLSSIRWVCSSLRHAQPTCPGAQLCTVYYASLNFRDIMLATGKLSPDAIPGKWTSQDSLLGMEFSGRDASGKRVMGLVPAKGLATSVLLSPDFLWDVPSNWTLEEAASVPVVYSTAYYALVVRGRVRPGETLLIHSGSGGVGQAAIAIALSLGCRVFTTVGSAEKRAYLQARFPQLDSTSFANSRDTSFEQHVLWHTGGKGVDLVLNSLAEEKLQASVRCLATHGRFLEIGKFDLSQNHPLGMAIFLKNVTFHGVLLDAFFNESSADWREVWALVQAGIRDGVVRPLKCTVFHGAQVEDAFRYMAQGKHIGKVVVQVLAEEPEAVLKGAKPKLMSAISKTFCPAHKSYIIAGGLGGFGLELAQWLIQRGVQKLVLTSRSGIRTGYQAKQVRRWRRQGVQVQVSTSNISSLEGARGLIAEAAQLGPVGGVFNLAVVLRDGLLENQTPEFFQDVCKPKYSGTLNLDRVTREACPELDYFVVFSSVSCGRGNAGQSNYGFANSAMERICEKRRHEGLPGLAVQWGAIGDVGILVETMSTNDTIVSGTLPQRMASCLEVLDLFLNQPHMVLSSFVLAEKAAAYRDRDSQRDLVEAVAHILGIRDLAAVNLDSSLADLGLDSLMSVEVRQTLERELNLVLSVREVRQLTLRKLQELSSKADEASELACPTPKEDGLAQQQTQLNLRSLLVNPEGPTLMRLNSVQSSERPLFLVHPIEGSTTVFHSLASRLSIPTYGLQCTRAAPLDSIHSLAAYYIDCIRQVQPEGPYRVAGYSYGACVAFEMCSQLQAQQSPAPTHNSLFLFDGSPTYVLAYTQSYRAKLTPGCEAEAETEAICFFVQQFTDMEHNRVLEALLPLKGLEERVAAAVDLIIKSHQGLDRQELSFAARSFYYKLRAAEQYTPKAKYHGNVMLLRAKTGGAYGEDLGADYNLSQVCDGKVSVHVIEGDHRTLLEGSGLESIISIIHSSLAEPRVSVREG
Paired box protein Pax-8, sequence (Q06710 whole entry): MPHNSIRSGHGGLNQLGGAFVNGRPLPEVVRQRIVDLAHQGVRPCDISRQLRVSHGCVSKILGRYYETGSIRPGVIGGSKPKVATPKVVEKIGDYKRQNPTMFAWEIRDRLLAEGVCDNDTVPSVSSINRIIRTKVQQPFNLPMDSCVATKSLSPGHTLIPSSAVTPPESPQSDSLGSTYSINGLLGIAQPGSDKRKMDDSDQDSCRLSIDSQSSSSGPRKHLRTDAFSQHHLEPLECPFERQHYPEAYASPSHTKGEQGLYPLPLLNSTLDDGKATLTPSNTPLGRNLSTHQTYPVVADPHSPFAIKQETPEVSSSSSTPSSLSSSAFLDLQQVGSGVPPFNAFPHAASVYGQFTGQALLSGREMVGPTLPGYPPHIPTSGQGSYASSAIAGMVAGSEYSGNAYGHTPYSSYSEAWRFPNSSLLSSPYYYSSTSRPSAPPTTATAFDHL

Regarding `Cc1cc(C)cc(NC(=O)/C(C#N)=C/c2cn(CC(=O)NCc3ccco3)c3ccccc23)c1`, the EC50 in [1] is 10.6 µM (active); in assay [2] it was 8.2 µM (active). For the same compound, the concentration at half-maximal activity (AC50) with INS1 was 3.92 µM (active).
Regarding `O=C(N/N=C/C(Cl)=C/c1ccccc1)c1ccc2c(c1)OCO2`, the IC50 in [3] is 52.9 µM (inactive).
The same measure, in the same setting: to `O=C(N/N=C/C(Br)=C/c1ccccc1)c1ccc([N+](=O)[O-])cc1` belongs 10.4 µM (active).
As to `COC(=O)C1C(=O)c2c([nH]c(C(=O)OCCSC)c2C)CC1C` (stereo not given), the concentration for a half-maximal effect (EC50) is 31.9 µM (active) in the assay on H4; 21.5 µM (active) in assay [4]; 0.963 µM (active) in [5]; > 12 µM (not active) in assay [6]; 1.34 µM (active) in [7]; < 0.1 µM (active) in assay [8].
With `CCn1cc(C(=O)O)c(=O)c2cc(F)c(N3CCN(C(=S)NC(=O)c4ccccc4F)CC3)cc21`, the IC50 in assay [3] was 6.64 µM (active).
Consider `CCC(C)NCCCOc1cc(Cl)ccc1Cl` (stereo not given), for which the AC50 in assay [9] is > 20 µM (inactive).
As for `Cc1nc2c(OCc3ccc(Cl)cc3Cl)cccn2c1N(C)CC1CC1`, the results for the AC50 in [10], in assay [13] and in assay [14] were 10 µM (active), 35.3 µM (active) and 19.9 µM (active), respectively. Moreover, the IC50 is 12.7 µM (active) at Fatty acid synthase [11] and 12.9 µM (active) on Fatty acid synthase [12].
With `O=C(NC(=S)Nc1nc2c(s1)CCCC2)c1ccccc1`, the EC50 in the assay on H4 was < 0.1 µM (active); in assay [4], 0.143 µM (active); in [5], 0.341 µM (active); in assay [6] it was 0.32 µM (active); in assay [7] it was 0.313 µM (active).
For `COc1ccc(C(=O)C[n+]2ccc3c(c2)nc(-c2ccc(OC)cc2OC)n3C)cc1`, the concentration giving a half-maximal response (EC50) in assay [1] was 22 µM (active); in assay [2], 31.2 µM (active).
In the case of `NC(=O)c1sc2nc3c(c(-c4cccs4)c2c1N)CCCC3`, the EC50 in assay [15] is 0.125 µM (active); in assay [16], 16.1 µM (active); in assay [17] it was < 0.1 µM (active); in assay [1], 118 µM (active); in assay [2], 36.5 µM (active).
Consider `Cc1cc(Nc2cccc(F)c2)nc(NCc2ccccc2)n1`, for which the EC50 in assay [1] was 10.4 µM (active); in assay [2], 11.1 µM (active). The AC50 in the assay with INS1 was 3.9 µM (active).
As for `O=C(Nc1cccc(F)c1)N1CCCCN2[C@@H](CO)[C@@H](c3ccc(C#Cc4ccccc4)cc3)[C@@H]2C1`, the AC50 was 5.97 µM (active) in assay [18], 10.1 µM (active) on Paired box protein Pax-8, 21.4 µM (active) in assay [19] and 13.4 µM (active) in [20].
With `CC(=O)NC1=C(N2CC2C)C(=O)C(NC(C)=O)=C(N2CC2C)C1=O` (stereo not given), the AC50 in assay [9] was 10.2 µM (active).
Regarding `Oc1c(C2=CC(C(F)(F)F)=NCCN2)ccc2ccccc12`, the half-maximal effective concentration (EC50) in the assay with H4 is < 0.1 µM (active); in assay [4] it was < 0.1 µM (inconclusive); in [5] it was 0.345 µM (active); in assay [6] it was 0.337 µM (active); in [7], 0.364 µM (active).
As to `C/C(=N\Nc1nc(N2CCOCC2)nc(N2CCOCC2)n1)c1ccc([N+](=O)[O-])cc1`, the IC50 at Fatty acid synthase [11] is 14.5 µM (active); on Fatty acid synthase [12] it was 17.9 µM (active).
In the same order, the values of `CC(C)COc1ccc(C(=O)N/C(=C\c2cccc([N+](=O)[O-])c2)C(=O)O)cc1` are 8.63 µM (active) and 9.1 µM (active).
For the compound `Cc1cc(N2CCN(c3nc(-c4ccc([N+](=O)[O-])cc4)cs3)CC2)c2ccccc2n1`, in [3], the IC50 was 4.77 µM (active).
Regarding `CC(C)(C)c1ccc(C(=O)OCCNC(=O)c2c(Cl)nc3ccccn23)cc1`, the IC50 was 5.51 µM (active) at Fatty acid synthase [11] and 4.36 µM (active) on Fatty acid synthase [12].
